Measurements reported in patent publication US10154974B1, “Use of abscisic acid for the prevention and treatment of malaria” (The Regents of the University of California, priority 2015, dated 2018).

Assays:
P. falciparum NF54 = assay: P. falciparum asexual growth assay; assay type: cell-based; settings: 10 nM or 100 nM ABA, 48 and 96 hours, relative to untreated control
Experimental: P. falciparum NF54 cultures were synchronized and aliquots plated in complete RPMI 1640 with HEPES, hypoxanthine, and 10% heat inactivated human serum. Parasites were treated with 10 nM ABA, 100 nM ABA, or a diluent control and incubated at 37° C. for 48 or 96 hours before culture media was replaced with 10% formalin in RPMI 1640. Red blood cells were stained with 10 ug/mL propidium iodide (Sigma-Aldrich) in PBS at room temperature for 1 hour and infected cells counted with FACS Calibur flow cytometer (BD Biosciences). Four replicates were carried out, each using a separate parasite culture passage. Relative changes in growth were normalized to controls set at 1 and analyzed by one-sample t-test.

gsk3 = gsk3 phosphorylation in mosquito midgut; assay type: in vivo, Anopheles stephensi; settings: midguts of ABA-treated, P. falciparum-fed mosquitoes
Experimental: Fold change is shown in levels of phosphorylated AMPK (FIG. 13A), and gsk3 (FIG. 13B) in the midguts of ABA-treated, P. falciparum-fed mosquitoes compared to controls. Each dot represents one replicate of 15 pooled midguts. Data were analyzed by one sample t-test. * p<0.05.

APL1 = APL1 expression in mosquito midgut; assay type: in vivo, Anopheles stephensi; settings: 100 nM ABA, 4 and 8 hours post-feeding
Experimental: For mosquito immune gene expression, 20 midguts were dissected from mosquitoes in each treatment group at 1, 2, 4, 6, 8 and 24 hours post-feeding. Midguts were sonicated and stored in Trizol at −20° C. for up to a week before RNA was extracted according to manufacturer's instructions. cDNA synthesis was carried out using QantiTect Reverse Transcription Kit (Qiagen) and 200 ng of cDNA used per reaction for qRT-PCR with Sybr Green (Applied Biosystems). Fold changes in expression levels were calculated using the comparative threshold cycle method. Data were normalized to the housekeeping gene ribosomal protein S7 and to the control treatment. Primers and cycling conditions for AsNOS, defensin, LRIM, TEP1, and APL1 were as previously described (Hauck E S, et al. Microbes Infect. 2013; 15:775-87). […] Samples were analyzed in triplicate with 250 ng of cDNA per reaction to confirm uniformity of amplification. […] All expression data were analyzed by one sample t-test.
Transcript levels of a panel of immune genes previously described to play a role in the mosquito immune response to malaria parasites were examined. […] Mosquitoes were provided with a P. falciparum-infected bloodmeal supplemented with 100 nM ABA or with an equivalent volume of diluent as control, then analyzed at 1-24 hours post feeding.

[1] = Small animal chemistry panel of plasma; assay type: in vivo, mice
Experimental: FIG. 19A-C through FIG. 28A-B and Tables 6-1 through 6-4 support the use of ABA for treating Plasmodium-infected mammalian subjects. In the following tables, 4-5 mice were used per treatment, and data were analyzed by unpaired t-test. […] Abbreviations for Tables 6-3 and 6-4 are as follows: WBC=white blood cells, RBCs=red blood cells, MCV=mean corpuscular volume, MCH=mean corpuscular hemoglobin, MCHC=mean corpuscular hemoglobin concentration, RDW=red blood cell distribution width, MPV=mean platelet volume.

[2] = tested on: cytokine and immune-regulators; assay: Cytokine and immune-regulator mRNA in spleen and liver; assay type: in vivo; settings: CD1 mice, day 4 and 7 post-infection
Experimental: FIG. 23A-B illustrate that ABA supplementation alters cytokine expression in the spleen and liver of infected mice consistent with enhanced IgG production and inflammasome activation. Shown are mRNA levels of cytokine and immune-regulators in the spleen (FIG. 23A) and liver (FIG. 23B) of control and ABA-supplemented CD1 mice on day 4 and 7 post-infection with P. yoelii 17XNL. Data are shown as −Δct, normalized to β-actin and were analyzed by unpaired t-test. # p<0.1 * p<0.05 ** p<0.01.

Anopheles stephensi = assay: Mosquito egg production and viability; assay type: in vivo; settings: single ABA-supplemented uninfected bloodmeal
Experimental: The egg laying rate and hatch rate were analyzed using Fisher's exact test. […] Each dot represents the clutch size of a single mosquito. Clutch size was analyzed by unpaired t-test.

P. yoelii 17XNL = P. yoelii 17XNL parasitemia in C57Bl/6 and casp1-/- mice; assay type: in vivo
Experimental: Daily parasitemia of three separate cohorts of mice with and without ABA supplementation. 3 to 5 mice were used per treatment in each infection. Data were analyzed by one-sided, unpaired t-test. # p<0.1, * p<0.05, ** p<0.005.
FIG. 28A-B illustrate that ABA has no effect on parasitemia in caspase-1 knockout mice. […] 4-5 mice were used per treatment group. Data were analyzed by unpaired t-test. # p<0.1 * p<0.05.

TAK = TAK phosphorylation in mosquito midgut; assay type: in vivo, Anopheles stephensi; settings: ABA-supplemented parasite-fed mosquito midguts
Experimental: FIG. 11A-D illustrate that ABA decreases P. falciparum infection by increasing TAK phosphorylation. […] Each dot represents one replicate of 15 pooled midguts. […] Phosphorylated TAK levels were analyzed by one sample t-test, NOS expression by Wilcoxon matched-pairs signed rank test, and infection prevalence by Fisher's exact test. * p<0.05.

[3] = uninfected and infected mice, day 11 post-infection

SMILES: CC1=CC(=O)CC(C)(C)[C@@]1(O)/C=C/C(C)=C\C(=O)O (racemic) [ABA, (2Z,4E)-5-[(1S)-1-hydroxy-2,6,6-trimethyl-4-oxocyclohex-2-en-1-yl]-3-methylpenta-2,4-dienoic acid]
- asexual growth (P. falciparum NF54): no effect
- phosphorylation of gsk3 (gsk3): alters phosphorylation
- APL1 expression (APL1): increased
- alanine transaminase, Mean ([1]; P. yoelii-infected mice): 30.23 U/L
- albumin, Mean ([1]; P. yoelii-infected mice): 2.25 g/dL
- aspartate transaminase, Mean ([1]; P. yoelii-infected mice): 194.7 U/L
- creatine, Mean ([1]; P. yoelii-infected mice): 0.18 mg/dL
- phosphorus, Mean ([1]; P. yoelii-infected mice): 8.43 mg/dL
- total bilirubin, Mean ([1]; P. yoelii-infected mice): 0.26 mg/dL
- total protein, Mean ([1]; P. yoelii-infected mice): 4.12 g/dL
- liver function (blood urea nitrogen levels in plasma) ([1]; day 11 post-infection): improved
- plasma indicators of organ health ([1]; uninfected and P. yoelii-infected mice): no effect
- glucose levels in mouse plasma [1, 3]: does not alter
- insulin levels in mouse plasma [1, 3]: does not alter
- alanine transaminase, Mean ([1]; uninfected mice): 176.8 U/L
- albumin, Mean ([1]; uninfected mice): 3.23 g/dL
- aspartate transaminase, Mean ([1]; uninfected mice): 1437 U/L
- blood urea nitrogen, Mean ([1]; uninfected mice): 28.76 mg/dL
- creatine, Mean ([1]; uninfected mice): 0.21 mg/dL
- phosphorus, Mean ([1]; uninfected mice): 10.07 mg/dL
- total bilirubin, Mean ([1]; uninfected mice): 0.06 mg/dL
- total protein, Mean ([1]; uninfected mice): 4.67 g/dL
- cytokine expression in the spleen and liver [2]: alters
- egg production or viability (Anopheles stephensi): does not alter
- parasitemia (P. yoelii 17XNL; C57Bl/6 mice, three cohorts): significantly reduces
- parasitemia (P. yoelii 17XNL; caspase-1 knockout mice): no effect
- TAK phosphorylation (TAK): increasing
